Assay results reported in patent US8809535B2, “Substituted pyridines having herbicidal action” (BASF SE, priority 2010, dated 2014).

Columns and labels:
Experiment in all cases: greenhouse post-emergence herbicidal test
ECHCG = assay type: in vivo, Echinochloa crus-galli; conditions: application rate 0.177 kg/ha, scale 0 to 100
Excerpt: (§1) The culture containers used were plastic flowerpots containing loamy sand with approximately 3.0% of humus as the substrate. The seeds of the test plants were sown separately for each species.
(§2) For the post-emergence treatment, the test plants were first grown to a height of 3 to 15 cm, depending on the plant habit, and only then treated with the active ingredients which had been suspended or emulsified in water. For this purpose, the test plants were either sown directly and grown in the same containers, or they were first grown separately as seedlings and transplanted into the test containers a few days prior to treatment.
(§3) Depending on the species, the plants were kept at 10-25° C. or 20-35° C. The test period extended over 2 to 4 weeks. During this time, the plants were tended, and their response to the individual treatments was evaluated.
(§4) Evaluation was carried out using a scale from 0 to 100. 100 means no emergence of the plants, or complete destruction of at least the aerial moieties, and 0 means no damage, or normal course of growth. A good herbicidal activity is given at values of at least 70 and a very good herbicidal activity is given at values of at least 85.
(§5) The plants used in the greenhouse experiments belonged to the following species: […]

GALAP = assay type: in vivo, Galium aparine; conditions: application rate 0.25 kg/ha, scale 0 to 100
Excerpt: as §1, §2, §3, §4, §5

SETVI = assay type: in vivo, Setaria viridis; conditions: application rate 0.25 kg/ha, scale 0 to 100
Excerpt: as §1, §2, §3, §4, §5

SMILES	herbicidal activity against ECHCG (ECHCG)	herbicidal activity against GALAP (GALAP)	herbicidal activity against SETVI (SETVI)
O=c1oc2cccnc2c(O)c1-c1cccc(N2CCOCC2)c1C(F)(F)F [Compound I-26]	very good herbicidal activity (a very good herbicidal activity is given at values of at least 85)		
O=c1oc2cccnc2c(O)c1-c1cc(Cl)cc(N2CCOCC2)c1C(F)(F)F [Compound I-49, 3-[5-chloro-3-morpholino-2-(trifluoromethyl)phenyl]-4-hydroxy-pyrano[3,2-b]pyridin-2-one]		very good herbicidal activity (a very good herbicidal activity is given at values of at least 85)	very good herbicidal activity (a very good herbicidal activity is given at values of at least 85)
